In ChEMBL document CHEMBL1151404, “Modification and evaluation of the potato disc assay and antitumor screening of euphorbiaceae seeds” (1982) one finds T/C and inhibition data, which are given here for four molecules.

Common to all, as to format: functional
For one assay, the system named is P388. Description: Antitumor activity against mouse P388 cells xenografted mouse assessed as increase in life span relative to control.
The test system of assay [1] is Agrobacterium tumefaciens. As to the kind of experiment: Antitumor activity against Agrobacterium tumefaciens B6-induced tumor formation at 10 ug/disk after 12 days by potato disk assay. To be noted: B6, 288 h.
The subject of assay [2] is Agrobacterium tumefaciens. As to the kind of experiment: Antitumor activity against Agrobacterium tumefaciens B6-induced tumor formation at 5 ug/disk after 12 days by potato disk assay. Particulars: B6, 288 h.
The test system of assay [3] is Agrobacterium tumefaciens. Description: Antitumor activity against Agrobacterium tumefaciens B6-induced tumor formation at 2.5 ug/disk after 12 days by potato disk assay. Particulars: B6, 288 h.
In assay [4] the test system is Agrobacterium tumefaciens. Description: Antitumor activity against Agrobacterium tumefaciens B6-induced tumor formation at 1.5 ug/disk after 12 days by potato disk assay. To be noted: B6, 288 h.

`COc1ccc(C[C@H]2C(=O)N[C@@H](C)C(=O)N(C)[C@@H]3C(=O)N(C)[C@@H](Cc4ccc(O)c(c4)Oc4ccc(cc4)[C@@H]3O)C(=O)N[C@@H](C)C(=O)N[C@@H](C)C(=O)N2C)cc1` [BOUVARDIN]: the T/C in the assay with P388 was found to be 188%. Moreover, the inhibition at 10 µg/disc in assay [1] is -40%. Further, the inhibition at 5 µg/disc in assay [2] was -15%. For the same molecule, in assay [3], the inhibition at 2.5 µg/disc worked out at 14%.

For `COc1cc2cc(c1Cl)N(C)C(=O)C[C@H](OC(=O)[C@H](C)N(C)C(=O)C(C)C)[C@]1(C)O[C@H]1[C@H](C)[C@@H]1C[C@@](O)(NC(=O)O1)[C@H](OC)/C=C/C=C(\C)C2OC` (some centres not stated) [TREWIASINE], in the assay on P388, the T/C came out at 168%. In assay [4], the inhibition at 1.5 µg/disc is -100%. In assay [1], the inhibition at 10 µg/disc is -100%. In assay [2], the inhibition at 5 µg/disc is -100%. Also, the inhibition at 2.5 µg/disc in assay [3] is -100%.

Regarding `CC[C@]1(O)C[C@H]2CN(CCc3c([nH]c4ccccc34)[C@@](C(=O)OC)(c3cc4c(cc3OC)N(C=O)[C@H]3[C@@](O)(C(=O)OC)[C@H](OC(C)=O)[C@]5(CC)C=CCN6CC[C@]43[C@@H]65)C2)C1` [VINCRISTINE], the T/C with P388 turned out to be 242%. The inhibition at 10 µg/disc in assay [1] is -44%. In addition, the inhibition at 5 µg/disc in assay [2] was -36%. In assay [3], the inhibition at 2.5 µg/disc was -17%.

Regarding `COC(=O)C[C@](O)(CCCC(C)(C)O)C(=O)O[C@@H]1C(OC)=C[C@]23CCCN2CCc2cc4c(cc2[C@H]13)OCO4` [OMACETAXINE MEPESUCCINATE], the T/C in the assay on P388 was found to be 238%. In assay [1], the inhibition at 10 µg/disc is -79%. Also, the inhibition at 5 µg/disc in assay [2] is -64%. Also, the inhibition at 2.5 µg/disc in assay [3] was -72%.

For orientation: T/C means the result in the treated group divided by that in the control group, in per cent. For orientation: inhibition means the drop in the measured response relative to a control, in per cent.
